According to patent US20070275935A1, “Estratriene Derivatives” (priority 2003, published 2007):

Columns and labels:
[1] = test system: HASM cells; assay: bFGF-induced HASM proliferation over 7 days on plastic or collagen-coated silastic, comparison with dexamethasone; type: cell-based, human; details: 1 μM, bFGF 300 pM
Procedure: We examined the effects of 4NO (1 μM) and the glucocorticoid dexamethasone (Dex, 100 nM) on the proliferation of HASM cells in response to bFGF (300 pM). Dexamethasone is a commonly used anti-inflammatory glucocorticoid. Cells were cultured on a standard plastic tissue culture plate. The test compounds were pre-incubated with HASM for 30 minutes before the addition of bFGF. The incubation continued for 7 days before cell enumeration (FIG. 5). Data are expressed as a percentage of the cell number in vehicle treated wells and are presented as the mean and standard error of the mean.
The response of HASM cells grown on a collagen extracellular matrix to the glucocorticoids and test compounds was also examined. Cells were cultured on a collagen-coated silastic base. HASM cells were pre-incubated with the test compounds for 30 minutes before the addition of bFGF (300 pM). The incubation continued for 7 days before cell enumeration (FIG. 6). Data are expressed as a percentage of the cell number in vehicle treated wells and are presented as the mean and standard error of the mean.

[2] = test system: cyclin D1; assay: Thrombin-mediated cyclin D1 protein expression in HASM (Western blotting); type: cell-based, human; details: 0.01 μM-1 μM pre-incubation; thrombin 0.3 U/ml, 8 h
Procedure: Human airway smooth muscle cells were cultured as described above in the proliferation experiments. Cells were serum-deprived for 24 h and stimulated with thrombin (0.3 U/ml) for 8h before harvest of protein for Western Blotting of cyclin D1.

[3] = test system: bleomycin-induced fibrosis in C57BL6 female mice; assay: Bleomycin model of pulmonary fibrosis in mice; type: in vivo; details: 4NO 50 mg/kg/day i.p.
Procedure: The activity of CP-DM-2-11-7 was investigated using a bleomycin model of pulmonary fibrosis (Underwood et al. 2000). 4NO was administered daily commencing on the day of the bleomycin challenge, 2 hours before the mice received bleomycin. The 4NO (50 mg/kg/day, by intraperitoneal injection) was then administered throughout the 14 day period. The mice also received a daily injection of bromo-deoxyuridine (BrdU) by intraperitoneal injection). The other two groups of mice), control and bleomycin-treated received a daily intraperitoneal injection of the vehicle containing BrdU. The vehicle comprised 10% dimethyl sulphoxide in peanut oil. […]
Body weight was measured throughout the experiment. […] After a 5 minute stabilization period, values of resistance and compliance were recorded and the animal was killed by a lethal dose of pentabarbitone.
Half of each group of animals was then subjected to bronchoalveolar lavage (BAL) to generate BAL fluid (BALF) in which the number of infiltrating cells was counted by haemocytometry. […]
Tissue areas reported in Table 6 were determined by capturing images of the lung section at a 100 times magnification and importing those images into a powerpoint file. […]
A 36 point overlay was then applied to the captured image and the number of grid points that intersect with tissue was determined for each of the 10 selected fields. […]

## COc1cc2c(cc1O)C(=NOCc1ccc([N+](=O)[O-])cc1)C[C@@H]1[C@@H]2CC[C@]2(C)[C@@H](O)CC[C@@H]12 [CP-DM-2-11-7, 2-methoxy-6-(4-nitrobenzyloxy)iminoestradiol]
[1]; collagen-coated silastic
  effect on bFGF-induced HASM proliferation on collagen (FIG. 6): retained its effectiveness as an anti-proliferative agent
[1]; plastic tissue culture plate
  effect on bFGF-induced HASM proliferation on plastic (FIG. 5): markedly reduced the increase in HASM cell number to levels below that of dexamethasone
[2]
  cyclin D1 protein levels: concentration-dependent reduction in the cyclin D1 protein levels
[3]; BrdU positive nuclei as percentage of total nuclei, major airway, n = 6, bleomycin alone 4.646 ± 0.8564
  Proliferation Epithelial: 3.802 ± 0.9053
[3]; magnification of 600×, bleomycin alone 1340 ± 287
  Parenchymal Cell Prolif.: 738 ± 185 positive cells/10^6 pixels
